Laboratory results reported in ChEMBL document CHEMBL1201862, “PubChem BioAssay data set” (2004).
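Growth conditions: 96-well plates. Treatment: test compound, 48 hours, 5 concentrations. Analysis: linear interpolation between bracketing concentrations; unreached endpoints set to highest concentration. GI50 = concentration required for 50% inhibition of growth.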 Calls of active or inactive are those of the source. No stated cut-off is given here; in the data, active = GI50 up to about 1.1 µM and inactive = higher.

What was measured:
Assay in all cases: NCI-60 cell line screen, 48 h
[1] = tested on: SF-295
[2] = tested on: SK-MEL-28
[3] = tested on: RXF 393
[4] = tested on: HT-29
[5] = tested on: 786-0
[6] = tested on: Hs-578T
[7] = tested on: T47D
[8] = tested on: U-251
[9] = tested on: PC-3
[10] = tested on: M14
[11] = tested on: NCI-H23
[12] = tested on: ACHN
[13] = tested on: SK-MEL-5
[14] = tested on: NCI-H522
[15] = tested on: BT-549
[16] = tested on: LOX IMVI
[17] = tested on: EKVX
[18] = tested on: UO-31
[19] = tested on: A549
[20] = tested on: NCI-H460

| SMILES | GI50 [1] | GI50 [2] | GI50 [3] | GI50 [4] | GI50 [5] | GI50 [6] | GI50 [7] | GI50 [8] | GI50 [9] | GI50 [10] | GI50 [11] | GI50 [12] | GI50 [13] | GI50 [14] | GI50 [15] | GI50 [16] | GI50 [17] | GI50 [18] | GI50 [19] | GI50 [20] |
| --- | --- | --- | --- | --- | --- | --- | --- | --- | --- | --- | --- | --- | --- | --- | --- | --- | --- | --- | --- | --- |
| CC(C)/C=N\N1C(N)=C(C#N)C(C#N)(C#N)C1C(C)C (centres undefined) | > 100 µM (inactive) | 47 µM (inactive) | 17.2 µM (inactive) | 27.5 µM (inactive) | 60.7 µM (inactive) | 88.5 µM (inactive) | 48.9 µM (inactive) | 39.6 µM (inactive) | 55.3 µM (inactive) | 66.1 µM (inactive) | 64.9 µM (inactive) | 65.3 µM (inactive) | 38.3 µM (inactive) | 62.1 µM (inactive) | 35.2 µM (inactive) | 31.8 µM (inactive) | > 100 µM (inactive) | 38 µM (inactive) | 60.4 µM (inactive) |  |
| C[n+]1c2ccccc2n2c3ccccc3c(NCCc3ccccn3)c(C#N)c21 | 2.32 µM (inactive) | 2.32 µM (inactive) | 1.01 µM (active) | 2.99 µM (inactive) | 1.58 µM (inactive) | 2.81 µM (inactive) | 2.36 µM (inactive) | 1.68 µM (inactive) | 2.55 µM (inactive) | 2.38 µM (inactive) | 2.56 µM (inactive) | 1.49 µM (inactive) | 2.9 µM (inactive) | 0.828 µM (active) | 5.89 µM (inactive) | 1.17 µM (inactive) | 4.06 µM (inactive) | 1.76 µM (inactive) | 3.62 µM (inactive) | 1.04 µM (active) |
| N=C(N)N/N=C/c1ccc(O)c(C(=O)O)c1 | > 100 µM (inactive) | > 100 µM (inactive) | > 100 µM (inactive) | 32.3 µM (inactive) | > 100 µM (inactive) | > 100 µM (inactive) | > 100 µM (inactive) | > 100 µM (inactive) | > 100 µM (inactive) | > 100 µM (inactive) | > 100 µM (inactive) | > 100 µM (inactive) | > 100 µM (inactive) | > 100 µM (inactive) | > 100 µM (inactive) | > 100 µM (inactive) |  | > 100 µM (inactive) | > 100 µM (inactive) | > 100 µM (inactive) |
| c1ccc2nn(C3CCCCO3)nc2c1 (centres undefined) | > 100 µM (inactive) |  | > 100 µM (inactive) | > 100 µM (inactive) | > 100 µM (inactive) | > 100 µM (inactive) | > 100 µM (inactive) | > 100 µM (inactive) | > 100 µM (inactive) | > 100 µM (inactive) | > 100 µM (inactive) | > 100 µM (inactive) | > 100 µM (inactive) | > 100 µM (inactive) | > 100 µM (inactive) |  | > 100 µM (inactive) | > 100 µM (inactive) | > 100 µM (inactive) | > 100 µM (inactive) |
| Cc1ccc([N+](=O)[O-])cc1S(=O)(=O)Nc1ccc(C2=NN(c3ccc([N+](=O)[O-])cc3[N+](=O)[O-])C(c3ccccc3O)C2)cc1 (centres undefined) | 29.9 µM (inactive) | 75.5 µM (inactive) | 40.6 µM (inactive) | 43.3 µM (inactive) | 39.8 µM (inactive) | 42.7 µM (inactive) | 27.6 µM (inactive) | 37.1 µM (inactive) | 36.4 µM (inactive) | 34.2 µM (inactive) | 19.6 µM (inactive) | 35.1 µM (inactive) | 20 µM (inactive) | 21 µM (inactive) | 28.2 µM (inactive) | 42 µM (inactive) | 26 µM (inactive) | 24.5 µM (inactive) | 31.4 µM (inactive) |  |
| N#Cc1c2c(c(N3CCOCC3)n3c1nc1ccccc13)CCCC2 | 17.9 µM (inactive) | 23.5 µM (inactive) |  | 16.4 µM (inactive) | 16.3 µM (inactive) | > 100 µM (inactive) | 19.2 µM (inactive) | 14.3 µM (inactive) | 21.9 µM (inactive) | 21.5 µM (inactive) | 19.5 µM (inactive) | 14.8 µM (inactive) | 18.7 µM (inactive) | 16.3 µM (inactive) | 40.1 µM (inactive) | 17.3 µM (inactive) | 16.2 µM (inactive) | 18.4 µM (inactive) | 23.8 µM (inactive) | 23.7 µM (inactive) |
| CC(NS(C)(=O)=O)c1ccccc1 (centres undefined) | > 100 µM (inactive) | > 100 µM (inactive) | > 100 µM (inactive) | > 100 µM (inactive) | > 100 µM (inactive) | > 100 µM (inactive) | > 100 µM (inactive) | > 100 µM (inactive) | > 100 µM (inactive) | > 100 µM (inactive) | > 100 µM (inactive) |  | > 100 µM (inactive) | > 100 µM (inactive) | > 100 µM (inactive) | > 100 µM (inactive) |  | > 100 µM (inactive) | > 100 µM (inactive) | > 100 µM (inactive) |
| C=C1C(=O)OC2/C=C(/C)C(OC(C)=O)CC(O)/C(C)=C\C(OC(=O)/C(C)=C\C)C12 (centres undefined) | > 100 µM (inactive) | 43.2 µM (inactive) | 51.9 µM (inactive) | 66.1 µM (inactive) | 17.1 µM (inactive) | > 100 µM (inactive) | 52.6 µM (inactive) | > 100 µM (inactive) | > 100 µM (inactive) | 53.6 µM (inactive) | > 100 µM (inactive) | 42.8 µM (inactive) | > 100 µM (inactive) | 10.6 µM (inactive) | 53.5 µM (inactive) | 28.5 µM (inactive) | 78 µM (inactive) |  | > 100 µM (inactive) | > 100 µM (inactive) |
| NCCCCNCCCN1CCOC1=O | > 100 µM (inactive) | > 100 µM (inactive) |  | > 100 µM (inactive) | > 100 µM (inactive) | > 100 µM (inactive) | > 100 µM (inactive) | > 100 µM (inactive) | > 100 µM (inactive) | > 100 µM (inactive) | > 100 µM (inactive) | > 100 µM (inactive) | > 100 µM (inactive) | > 100 µM (inactive) | > 100 µM (inactive) | > 100 µM (inactive) | > 100 µM (inactive) | > 100 µM (inactive) | > 100 µM (inactive) | > 100 µM (inactive) |
| COc1ccc(CCNC(=O)[C@H]2CCCC[C@@H]2CCO)cc1OC | > 100 µM (inactive) | > 100 µM (inactive) | > 100 µM (inactive) | > 100 µM (inactive) | > 100 µM (inactive) | > 100 µM (inactive) | > 100 µM (inactive) | > 100 µM (inactive) | > 100 µM (inactive) | > 100 µM (inactive) | > 100 µM (inactive) | > 100 µM (inactive) | > 100 µM (inactive) | > 100 µM (inactive) | > 100 µM (inactive) |  | > 100 µM (inactive) | 54.7 µM (inactive) | > 100 µM (inactive) | > 100 µM (inactive) |
| CNC(=S)N/N=C/c1cccc(C)n1 | 32.7 µM (inactive) | 56.5 µM (inactive) | 38.5 µM (inactive) | 36 µM (inactive) | 24.6 µM (inactive) | > 91.8 µM (inactive) | 42.8 µM (inactive) | 26.1 µM (inactive) | 42 µM (inactive) | 21.3 µM (inactive) | 31.4 µM (inactive) | 28.2 µM (inactive) | 25.1 µM (inactive) | 27.2 µM (inactive) | 23.5 µM (inactive) | 24.7 µM (inactive) | 46.6 µM (inactive) | 20.7 µM (inactive) | 39 µM (inactive) | 19.9 µM (inactive) |
